Target: human O-GlcNAcase (Homo sapiens (Human), UniProt O60502)
Assay: Assay for determination of KI values for inhibition of O-GlcNAcase activity (fluorescence-based)
Assay type: biochemical
Conditions: purified human O-GlcNAcase, 4-Methylumbelliferyl N-acetyl-β-D-glucosaminide substrate, pH 7.0, Cheng-Prusoff; read-out: Fluorescence-based hOGA Ki
Experimental: Assay for Determination of KI Values for Inhibition of O-GlcNAcase Activity
Experimental Procedure for Kinetic Analyses:
Enzymatic reactions are carried out in a reaction containing 50 mM NaH2PO4, 100 mM NaCl and 0.1% BSA (pH 7.0) using 2 mM 4-Methylumbelliferyl N-acetyl-β-D-glucosaminide dihydrate (Sigma M2133) dissolved in ddH2O, as a substrate. The amount of purified human O-GlcNAcase enzyme used in the reaction is 0.7 nM. Test compound of varying concentrations is added to the enzyme prior to initiation of the reaction. The reaction is performed at room temperature in a 96-well plate and is initiated with the addition of substrate. The production of fluorescent product is measured every 60 sec for 45 min with a Tecan Infinite M200 plate-reader with excitation at 355 nm and emission detected at […], with 4-Methylumbelliferone (Sigma M1381) used to produce a standard curve. The slope of product production is determined for each concentration of compound tested and plotted, using standard curve fitting algorithms for sigmoidal dose response curves. The values for a four parameter logistic curve fit of the data are determined.
KI values are determined using the Cheng-Prusoff equation; the Km of O-GlcNAcase for substrate is 0.2 mM.

human O-GlcNAcase, sequence (O60502 whole entry): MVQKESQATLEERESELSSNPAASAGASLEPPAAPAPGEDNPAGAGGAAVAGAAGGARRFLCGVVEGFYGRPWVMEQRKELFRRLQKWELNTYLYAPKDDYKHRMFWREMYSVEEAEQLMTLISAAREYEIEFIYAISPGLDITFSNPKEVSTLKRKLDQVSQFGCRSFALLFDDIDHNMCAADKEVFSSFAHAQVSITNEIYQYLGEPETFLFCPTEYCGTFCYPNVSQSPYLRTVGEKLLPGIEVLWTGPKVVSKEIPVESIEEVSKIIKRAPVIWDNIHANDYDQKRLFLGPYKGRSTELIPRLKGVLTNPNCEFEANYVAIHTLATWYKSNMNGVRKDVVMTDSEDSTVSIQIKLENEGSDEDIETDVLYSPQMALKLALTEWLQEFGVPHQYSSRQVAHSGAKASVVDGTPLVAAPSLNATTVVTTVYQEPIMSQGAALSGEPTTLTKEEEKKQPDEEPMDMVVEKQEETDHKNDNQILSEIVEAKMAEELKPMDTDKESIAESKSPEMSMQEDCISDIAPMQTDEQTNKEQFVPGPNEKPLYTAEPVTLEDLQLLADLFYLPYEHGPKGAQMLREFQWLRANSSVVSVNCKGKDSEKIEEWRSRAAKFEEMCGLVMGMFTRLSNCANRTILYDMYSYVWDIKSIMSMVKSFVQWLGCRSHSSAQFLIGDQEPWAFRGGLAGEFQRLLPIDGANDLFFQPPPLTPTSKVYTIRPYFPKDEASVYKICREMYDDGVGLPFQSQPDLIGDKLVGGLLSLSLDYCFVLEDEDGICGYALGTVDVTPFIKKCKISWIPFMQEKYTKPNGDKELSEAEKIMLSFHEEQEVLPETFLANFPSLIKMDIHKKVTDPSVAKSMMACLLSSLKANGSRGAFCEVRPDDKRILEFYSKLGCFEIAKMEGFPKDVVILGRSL

Row | Ki | Compound
1 | 16.5 µM | CC(=O)N[C@H]1CN(CCCc2ccccc2)[C@@H](CO)[C@@H]1O [Example 1, N-((3S,4R,5S)-4-hydroxy-5-(hydroxymethyl)-1-(3-phenylpropyl)pyrrolidin-3-yl)acetamide]
2 | 5.9 µM | CC(=O)N[C@H]1CN[C@@H](CO)[C@@H]1O
3 | 15 µM | CCCCN1C[C@H](NC(C)=O)[C@@H](O)[C@@H]1CO

From US9670195B2, “Glycosidase inhibitors and uses thereof” (Alectos Therapeutics Inc., priority 2012, dated 2017)
